Data taken from patent US6479435B1, “Diaryl ethers and processes for their preparation and herbicidal and desiccant compositions containing them” (ISK Americas Incorporated, priority 1997, dated 2002).

Key:
Assay type in all cases: in vivo
[1] = tested on: large crabgrass (Digitaria sanguinalis, DIGSA); test: Post-emerge greenhouse herbicide test, phytotoxicity rating; details: Digitaria sanguinalis, post-emergence, 336 h, 14 days after application, scale 0-100; for pest or weed control at 63 g/ha: rate 63 g ai/ha; for pest or weed control at 500 g/ha: rate 500 g ai/ha
Summary of the method: (§1)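 Compounds in acetone with 0.25% v/v non-ionic surfactant were track-sprayed at 187 l/ha over plants at the 2-3 leaf stage, at 63 to 1000 g ai/ha. Pots were bottom-watered. Injury was scored visually 14 days later on a 0-100 scale, where 0 is no damage and 100 is complete plant death.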

[2] = tested on: redroot pigweed (Amaranthus retroflexus, AMARE); test: as above; details: Amaranthus retroflexus, post-emergence, 336 h, 14 days after application, scale 0-100; for pest or weed control at 63 g/ha: rate 63 g ai/ha; for pest or weed control at 500 g/ha: rate 500 g ai/ha
Summary of the method: as §1

[3] = tested on: green foxtail (Setaria viridis, SETVI); test: as above; details: Setaria viridis, post-emergence, 336 h, 14 days after application, scale 0-100; for pest or weed control at 63 g/ha: rate 63 g ai/ha; for pest or weed control at 500 g/ha: rate 500 g ai/ha
Summary of the method: as §1

[4] = tested on: ivyleaf morningglory (Ipomoea hederacea, IPOHE); test: as above; details: Ipomoea, post-emergence, 336 h, 14 days after application, scale 0-100; for pest or weed control at 63 g/ha: rate 63 g ai/ha; for pest or weed control at 500 g/ha: rate 500 g ai/ha
Summary of the method: as §1

[5] = tested on: sicklepod (Cassia obtusifolia, CASOB); test: as above; details: Senna obtusifolia, post-emergence, 336 h, 14 days after application, scale 0-100; for pest or weed control at 63 g/ha: rate 63 g ai/ha; for pest or weed control at 500 g/ha: rate 500 g ai/ha
Summary of the method: as §1

[6] = tested on: Johnsongrass (Sorghum halepense, SORHA); test: as above; details: Sorghum halepense, post-emergence, 336 h, 14 days after application, scale 0-100; for pest or weed control at 63 g/ha: rate 63 g ai/ha; for pest or weed control at 500 g/ha: rate 500 g ai/ha
Summary of the method: as §1

[7] = tested on: lambsquarters (Chenopodium album, CHEAL); test: as above; details: Chenopodium album, post-emergence, 336 h, 14 days after application, scale 0-100; for pest or weed control at 63 g/ha: rate 63 g ai/ha; for pest or weed control at 500 g/ha: rate 500 g ai/ha
Summary of the method: as §1

[8] = tested on: barnyardgrass (Echinochloa crusgalli, ECHCG); test: as above; details: Echinochloa crus-galli, post-emergence, 336 h, 14 days after application, scale 0-100; for pest or weed control at 63 g/ha: rate 63 g ai/ha; for pest or weed control at 500 g/ha: rate 500 g ai/ha
Summary of the method: as §1

[9] = tested on: velvetleaf (Abutilon theophrasti, ABUTH); test: as above; details: Abutilon theophrasti, post-emergence, 336 h, 14 days after application, scale 0-100; for pest or weed control at 63 g/ha: rate 63 g ai/ha; for pest or weed control at 500 g/ha: rate 500 g ai/ha
Summary of the method: as §1

[10] = tested on: green foxtail (Setaria viridis, SETVI); test: Pre-emerge greenhouse herbicide test, phytotoxicity rating; details: Setaria viridis, pre-emergence, 336 h, 14 days after application, rating scale 0-100; for pest or weed control at 125 g/ha: Rate 125 g al/ha; for pest or weed control at 500 g/ha: Rate 500 g al/ha
Summary of the method: (§2)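 Seeds sown in sandy loam mix one day before track-sprayer application of compounds in acetone at 125–1000 g ai/ha (187 l/ha), then surface-watered to incorporate and bottom-watered. Visual rating 14 days after application on a 0–100 scale (0 = no damage, 100 = all plants dead).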

[11] = tested on: ivyleaf morningglory (Ipomoea hederacea, IPOHE); test: as above; details: Ipomoea, pre-emergence, 336 h, 14 days after application, rating scale 0-100; for pest or weed control at 125 g/ha: Rate 125 g al/ha; for pest or weed control at 500 g/ha: Rate 500 g al/ha
Summary of the method: as §2

[12] = tested on: sicklepod (Cassia obtusifolia, CASOB); test: as above; details: Senna obtusifolia, pre-emergence, 336 h, 14 days after application, rating scale 0-100; for pest or weed control at 125 g/ha: Rate 125 g al/ha; for pest or weed control at 500 g/ha: Rate 500 g al/ha
Summary of the method: as §2

[13] = tested on: Johnsongrass (Sorghum halepense, SORHA); test: as above; details: Sorghum halepense, pre-emergence, 336 h, 14 days after application, rating scale 0-100; for pest or weed control at 125 g/ha: Rate 125 g al/ha; for pest or weed control at 500 g/ha: Rate 500 g al/ha
Summary of the method: as §2

[14] = tested on: lambsquarters (Chenopodium album, CHEAL); test: as above; details: Chenopodium album, pre-emergence, 336 h, 14 days after application, rating scale 0-100; for pest or weed control at 125 g/ha: Rate 125 g al/ha; for pest or weed control at 500 g/ha: Rate 500 g al/ha
Summary of the method: as §2

[15] = tested on: velvetleaf (Abutilon theophrasti, ABUTH); test: as above; details: Abutilon theophrasti, pre-emergence, 336 h, 14 days after application, rating scale 0-100; for pest or weed control at 125 g/ha: Rate 125 g al/ha; for pest or weed control at 500 g/ha: Rate 500 g al/ha
Summary of the method: as §2

SMILES	pest or weed control at 63 g/ha [1] [%]	pest or weed control at 500 g/ha [1] [%]	pest or weed control at 63 g/ha [2] [%]	pest or weed control at 500 g/ha [2] [%]	pest or weed control at 63 g/ha [3] [%]	pest or weed control at 500 g/ha [3] [%]	pest or weed control at 63 g/ha [4] [%]	pest or weed control at 500 g/ha [4] [%]	pest or weed control at 63 g/ha [5] [%]	pest or weed control at 500 g/ha [5] [%]	pest or weed control at 63 g/ha [6] [%]	pest or weed control at 500 g/ha [6] [%]	pest or weed control at 63 g/ha [7] [%]	pest or weed control at 500 g/ha [7] [%]	pest or weed control at 63 g/ha [8] [%]	pest or weed control at 500 g/ha [8] [%]	pest or weed control at 63 g/ha [9] [%]	pest or weed control at 500 g/ha [9] [%]	pest or weed control at 125 g/ha [10] [%]	pest or weed control at 500 g/ha [10] [%]	also measured
Nn1c(C(F)(F)F)cc(=O)n(-c2cc(Oc3ccccc3)c(Cl)cc2F)c1=O [Compound 9-26, 1-Amino-3-[4-chloro-2-fluoro-5-phenoxyphenyl]-6-trifluoromethyl-1,2,3,4-tetrahydropyrimidine-2,4-dione]	80	50	100	100	100	100	100	100	100	100	90	100	100	100	80	100	100	100	100	100	pest or weed control at 125 g/ha [11]: 100%; pest or weed control at 500 g/ha [11]: 60%; pest or weed control at 125 g/ha [12]: 95%; pest or weed control at 500 g/ha [12]: 100%; pest or weed control at 125 g/ha [13]: 90%; pest or weed control at 500 g/ha [13]: 100%; pest or weed control at 125 g/ha [14]: 100%; pest or weed control at 500 g/ha [14]: 100%; pest or weed control at 125 g/ha [15]: 100%; pest or weed control at 500 g/ha [15]: 100%
Nn1c(C(F)(F)F)cc(=O)n(-c2cc(Oc3cc(C(F)(F)F)ccn3)c(Cl)cc2F)c1=O [Compound 9-8, 1-Amino-3-[4-chloro-2-fluoro-5-(4-trifluoromethyl-2-pyridyloxy)phenyl]-6-trifluoromethyl-1,2,3,4-tetrahydropyrimidine-2,4-dione]	10	30	100	100	30	75	95	100	30	30	30	90	95	100	10	95	100	100	40	100	pest or weed control at 125 g/ha [11]: 95%; pest or weed control at 500 g/ha [11]: 100%; pest or weed control at 125 g/ha [12]: 80%; pest or weed control at 500 g/ha [12]: 90%; pest or weed control at 125 g/ha [13]: 50%; pest or weed control at 500 g/ha [13]: 99%; pest or weed control at 125 g/ha [14]: 100%; pest or weed control at 500 g/ha [14]: 100%; pest or weed control at 125 g/ha [15]: 100%; pest or weed control at 500 g/ha [15]: 100%
Nn1c(C(F)(F)F)cc(=O)n(-c2cc(Oc3ncccn3)c(Cl)cc2F)c1=O [Compound 9-16, 1-Amino-3-[4-chloro-2-fluoro-5-(2-pyrimidyloxy)phenyl]-6-trifluoromethyl-1,2,3,4-tetrahydropyrimidine-2,4-dione]	100	100	100	100	100	100	100	100	100	100	100	100	100	100	100	100	100	100	100	100	pest or weed control at 125 g/ha [11]: 100%; pest or weed control at 500 g/ha [11]: 100%; pest or weed control at 125 g/ha [12]: 100%; pest or weed control at 500 g/ha [12]: 100%; pest or weed control at 125 g/ha [13]: 100%; pest or weed control at 500 g/ha [13]: 100%; pest or weed control at 125 g/ha [14]: 100%; pest or weed control at 500 g/ha [14]: 100%; pest or weed control at 125 g/ha [15]: 100%; pest or weed control at 500 g/ha [15]: 100%
